Test results: the supplement of paper PMC10307832

How the values were obtained:
Test in all cases: relative viability (nuclei count vs DMSO), 5 days (fraction); higher = more cells survive
NCI-H1975 = system: NCI-H1975
How it was run: (§1)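 Values are medians from duplicate plates. Each reflects relative viability, defined as the nuclei count of treated wells over that of vehicle wells. Lung cancer cell lines in 1536-well plates were pin-tool dosed one day after seeding with one drug alone or with a fixed anchor-drug dose plus five library-drug doses (not always all listed) in √10 steps, then fixed, stained and imaged at 4× after 5 days.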

LOU-NH91 = system: LOU-NH91
How it was run: as §1

NCI-H358 = system: NCI-H358
How it was run: as §1

NCI-H2342 = system: NCI-H2342
How it was run: as §1

LU99A = system: LU99A
How it was run: as §1

EKVX = system: EKVX
How it was run: as §1

BEN = system: BEN
How it was run: as §1

HOP-62 = system: HOP-62
How it was run: as §1

PC-3 [JPC-3] = system: PC-3 [JPC-3]
How it was run: as §1

NCI-H1437 = system: NCI-H1437
How it was run: as §1

SW 1573 = system: SW 1573
How it was run: as §1

201T = system: 201T
How it was run: as §1

NCI-H2087 = system: NCI-H2087
How it was run: as §1

LCLC-97TM1 = system: LCLC-97TM1
How it was run: as §1

HCC-44 = system: HCC-44
How it was run: as §1

EPLC-272H = system: EPLC-272H
How it was run: as §1

COR-L 105 = system: COR-L 105
How it was run: as §1

NCI-H2085 = system: NCI-H2085
How it was run: as §1

NCI-H2126 = system: NCI-H2126
How it was run: as §1

NCI-H1666 = system: NCI-H1666
How it was run: as §1

NCI-H647 = system: NCI-H647
How it was run: as §1

NCI-H1395 = system: NCI-H1395
How it was run: as §1

HCC-827 = system: HCC-827
How it was run: as §1

H3255 = system: H3255
How it was run: as §1

COc1cc(N2CCC(C(N)=O)CC2)ccc1Nc1nc(N)c(Cl)c(Nc2ccccc2S(=O)(=O)C(C)C)n1 [HG-5-88-01] + CC(=O)c1c(C)c2cnc(Nc3ccc(N4CCNCC4)cn3)nc2n(C2CCCC2)c1=O [Palbociclib] (partner 0.5 µM)
relative viability (NCI-H1975; first compound 0.04 µM): 0.597 | relative viability (NCI-H1975; first compound 0.1265 µM): 0.643 | relative viability (NCI-H1975; first compound 0.4 µM): 0.464 | relative viability (NCI-H1975; first compound 1.265 µM): 0.538 | relative viability (NCI-H1975; first compound 4 µM): 0.425 | relative viability (LOU-NH91; first compound 0.04 µM): 0.533 | relative viability (LOU-NH91; first compound 0.1265 µM): 0.491 | relative viability (LOU-NH91; first compound 0.4 µM): 0.585 | relative viability (LOU-NH91; first compound 1.265 µM): 0.509 | relative viability (LOU-NH91; first compound 4 µM): 0.55 | relative viability (NCI-H358; first compound 0.04 µM): 0.139 | relative viability (NCI-H358; first compound 0.1265 µM): 0.131 | relative viability (NCI-H358; first compound 0.4 µM): 0.118 | relative viability (NCI-H358; first compound 1.265 µM): 0.0962 | relative viability (NCI-H358; first compound 4 µM): 0.0785 | relative viability (NCI-H2342; first compound 0.04 µM): 0.557 | relative viability (NCI-H2342; first compound 0.1265 µM): 0.54 | relative viability (NCI-H2342; first compound 0.4 µM): 0.471 | relative viability (NCI-H2342; first compound 4 µM): 0.539 | relative viability (LU99A; first compound 0.04 µM): 0.434 | relative viability (LU99A; first compound 0.1265 µM): 0.39 | relative viability (LU99A; first compound 0.4 µM): 0.384 | relative viability (LU99A; first compound 1.265 µM): 0.32 | relative viability (LU99A; first compound 4 µM): 0.305 | relative viability (EKVX; first compound 0.04 µM): 0.507 | relative viability (EKVX; first compound 0.1265 µM): 0.425 | relative viability (EKVX; first compound 0.4 µM): 0.389 | relative viability (EKVX; first compound 4 µM): 0.293 | relative viability (BEN; first compound 0.04 µM): 0.451 | relative viability (BEN; first compound 0.1265 µM): 0.461 | relative viability (BEN; first compound 0.4 µM): 0.409 | relative viability (BEN; first compound 1.265 µM): 0.465 | relative viability (BEN; first compound 4 µM): 0.411 | relative viability (HOP-62; first compound 0.04 µM): 0.428 | relative viability (HOP-62; first compound 0.1265 µM): 0.54 | relative viability (HOP-62; first compound 0.4 µM): 0.456 | relative viability (HOP-62; first compound 1.265 µM): 0.501 | relative viability (HOP-62; first compound 4 µM): 0.608 | relative viability (PC-3 [JPC-3]; first compound 0.04 µM): 0.485 | relative viability (PC-3 [JPC-3]; first compound 0.1265 µM): 0.586 | relative viability (PC-3 [JPC-3]; first compound 0.4 µM): 0.512 | relative viability (PC-3 [JPC-3]; first compound 1.265 µM): 0.426 | relative viability (PC-3 [JPC-3]; first compound 4 µM): 0.422 | relative viability (NCI-H1437; first compound 0.04 µM): 0.372 | relative viability (NCI-H1437; first compound 0.1265 µM): 0.299 | relative viability (NCI-H1437; first compound 0.4 µM): 0.271 | relative viability (NCI-H1437; first compound 1.265 µM): 0.28 | relative viability (NCI-H1437; first compound 4 µM): 0.243 | relative viability (SW 1573; first compound 0.04 µM): 0.412 | relative viability (SW 1573; first compound 0.1265 µM): 0.369 | relative viability (SW 1573; first compound 0.4 µM): 0.337 | relative viability (SW 1573; first compound 1.265 µM): 0.257 | relative viability (SW 1573; first compound 4 µM): 0.277 | relative viability (201T; first compound 0.04 µM): 0.368 | relative viability (201T; first compound 0.1265 µM): 0.343 | relative viability (201T; first compound 1.265 µM): 0.347 | relative viability (201T; first compound 4 µM): 0.36 | relative viability (NCI-H2087; first compound 0.04 µM): 0.242 | relative viability (NCI-H2087; first compound 0.1265 µM): 0.246 | relative viability (NCI-H2087; first compound 0.4 µM): 0.219 | relative viability (NCI-H2087; first compound 1.265 µM): 0.207 | relative viability (NCI-H2087; first compound 4 µM): 0.244 | relative viability (LCLC-97TM1; first compound 0.04 µM): 0.214 | relative viability (LCLC-97TM1; first compound 0.1265 µM): 0.198 | relative viability (LCLC-97TM1; first compound 0.4 µM): 0.197 | relative viability (LCLC-97TM1; first compound 1.265 µM): 0.194 | relative viability (LCLC-97TM1; first compound 4 µM): 0.118 | relative viability (HCC-44; first compound 0.04 µM): 0.983 | relative viability (HCC-44; first compound 0.1265 µM): 0.957 | relative viability (HCC-44; first compound 0.4 µM): 0.864 | relative viability (HCC-44; first compound 1.265 µM): 0.954 | relative viability (HCC-44; first compound 4 µM): 0.943 | relative viability (EPLC-272H; first compound 0.04 µM): 0.342 | relative viability (EPLC-272H; first compound 0.1265 µM): 0.342 | relative viability (EPLC-272H; first compound 0.4 µM): 0.335 | relative viability (EPLC-272H; first compound 1.265 µM): 0.273 | relative viability (EPLC-272H; first compound 4 µM): 0.0966 | relative viability (COR-L 105; first compound 0.04 µM): 0.398 | relative viability (COR-L 105; first compound 0.1265 µM): 0.419 | relative viability (COR-L 105; first compound 0.4 µM): 0.459 | relative viability (COR-L 105; first compound 1.265 µM): 0.403 | relative viability (COR-L 105; first compound 4 µM): 0.394 | relative viability (NCI-H2085; first compound 0.04 µM): 0.474 | relative viability (NCI-H2085; first compound 0.1265 µM): 0.485 | relative viability (NCI-H2085; first compound 0.4 µM): 0.458 | relative viability (NCI-H2085; first compound 1.265 µM): 0.465 | relative viability (NCI-H2085; first compound 4 µM): 0.552 | relative viability (NCI-H2126; first compound 0.04 µM): 0.363 | relative viability (NCI-H2126; first compound 0.1265 µM): 0.352 | relative viability (NCI-H2126; first compound 0.4 µM): 0.378 | relative viability (NCI-H2126; first compound 1.265 µM): 0.332 | relative viability (NCI-H2126; first compound 4 µM): 0.372 | relative viability (NCI-H1666; first compound 0.04 µM): 0.636 | relative viability (NCI-H1666; first compound 0.1265 µM): 0.663 | relative viability (NCI-H1666; first compound 0.4 µM): 0.623 | relative viability (NCI-H1666; first compound 1.265 µM): 0.661 | relative viability (NCI-H1666; first compound 4 µM): 0.623 | relative viability (NCI-H647; first compound 0.04 µM): 0.388 | relative viability (NCI-H647; first compound 0.1265 µM): 0.423 | relative viability (NCI-H647; first compound 1.265 µM): 0.444 | relative viability (NCI-H647; first compound 4 µM): 0.494 | relative viability (NCI-H1395; first compound 0.04 µM): 0.593 | relative viability (NCI-H1395; first compound 0.1265 µM): 0.754 | relative viability (NCI-H1395; first compound 0.4 µM): 0.613 | relative viability (NCI-H1395; first compound 1.265 µM): 0.474 | relative viability (NCI-H1395; first compound 4 µM): 0.664 | relative viability (HCC-827; first compound 0.04 µM): 0.583 | relative viability (HCC-827; first compound 0.1265 µM): 0.459 | relative viability (HCC-827; first compound 0.4 µM): 0.425 | relative viability (HCC-827; first compound 1.265 µM): 0.197 | relative viability (HCC-827; first compound 4 µM): 0.33 | relative viability (H3255; first compound 0.04 µM): 0.291 | relative viability (H3255; first compound 0.1265 µM): 0.312 | relative viability (H3255; first compound 0.4 µM): 0.309 | relative viability (H3255; first compound 4 µM): 0.277
